Assay results as given in publication PMC4579270, “Identification and Characterization of an Irreversible Inhibitor of CDK2” (Chemistry & Biology, 2015).
Where two headings read alike, the source gives them in different places.

Legend:
Assay in all cases: Dundee kinase screen re-test (standard format and 4 hour pre-incubation)
Format in all cases: biochemical
[1] = target: CDK9-Cyclin T1 (Homo sapiens, UniProt P50750); conditions: CDK9/cyclin T1, 0.5µM
Procedure, shortened: (§1)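 Selectivity panel of 131 protein kinases, inhibitor tested at a single concentration of 1 µM; values are % kinase activity remaining, mean of duplicates. Re-test of selected kinases used 0.5 µM in the standard format and again after a 4 hour pre-incubation with the inhibitor.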

[2] = target: T1, CHK1 (Homo sapiens, UniProt O14757); conditions: CHK1, 0.5µM
T1 sequence (O14757 1-476): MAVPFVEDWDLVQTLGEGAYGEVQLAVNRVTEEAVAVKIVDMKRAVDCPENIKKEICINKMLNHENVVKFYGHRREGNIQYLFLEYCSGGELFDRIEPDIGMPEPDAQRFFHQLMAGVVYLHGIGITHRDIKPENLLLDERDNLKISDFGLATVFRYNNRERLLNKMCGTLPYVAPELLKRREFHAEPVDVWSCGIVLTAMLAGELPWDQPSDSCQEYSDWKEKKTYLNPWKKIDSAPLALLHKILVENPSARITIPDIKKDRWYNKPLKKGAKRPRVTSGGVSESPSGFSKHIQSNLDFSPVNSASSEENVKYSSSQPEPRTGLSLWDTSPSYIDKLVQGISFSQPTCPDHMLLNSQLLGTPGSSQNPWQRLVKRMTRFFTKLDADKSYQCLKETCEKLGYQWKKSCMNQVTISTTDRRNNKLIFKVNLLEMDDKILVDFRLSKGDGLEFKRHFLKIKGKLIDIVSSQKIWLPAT
Procedure, shortened: as §1

[3] = target: CLK2 (Homo sapiens, UniProt P49760); conditions: CLK2, 0.5µM
Procedure, shortened: as §1

[4] = target: GSK3b (Homo sapiens, UniProt P49841)
Procedure, shortened: as §1

[5] = target: IR (Homo sapiens, UniProt P06213)
Procedure, shortened: as §1

[6] = target: JAK2 (Homo sapiens, UniProt O60674); conditions: JAK2, 0.5µM
Procedure, shortened: as §1

[7] = target: T2, MARK4 (Homo sapiens, UniProt Q96L34); conditions: MARK4, 0.5µM
T2 sequence (Q96L34 1-752): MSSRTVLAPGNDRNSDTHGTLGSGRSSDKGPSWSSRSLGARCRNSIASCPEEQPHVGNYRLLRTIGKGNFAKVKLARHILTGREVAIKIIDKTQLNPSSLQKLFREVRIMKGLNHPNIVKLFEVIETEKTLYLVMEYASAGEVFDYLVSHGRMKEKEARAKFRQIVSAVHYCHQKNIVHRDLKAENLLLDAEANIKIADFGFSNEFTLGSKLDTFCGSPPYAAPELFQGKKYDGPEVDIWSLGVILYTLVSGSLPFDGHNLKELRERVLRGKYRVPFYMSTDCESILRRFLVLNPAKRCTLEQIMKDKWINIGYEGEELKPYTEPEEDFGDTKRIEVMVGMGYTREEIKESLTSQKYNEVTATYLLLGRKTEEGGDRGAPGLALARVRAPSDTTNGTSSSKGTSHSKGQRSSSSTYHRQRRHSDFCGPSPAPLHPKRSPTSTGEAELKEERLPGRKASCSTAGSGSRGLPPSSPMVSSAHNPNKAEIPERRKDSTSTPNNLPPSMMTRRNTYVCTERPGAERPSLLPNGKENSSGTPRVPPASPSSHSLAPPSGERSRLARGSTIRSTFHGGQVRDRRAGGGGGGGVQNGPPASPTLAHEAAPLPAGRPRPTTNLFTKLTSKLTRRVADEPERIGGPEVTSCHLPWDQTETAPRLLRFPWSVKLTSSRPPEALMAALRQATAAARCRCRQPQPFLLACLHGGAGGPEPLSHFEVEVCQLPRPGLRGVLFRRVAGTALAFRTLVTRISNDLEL
Procedure, shortened: as §1

[8] = target: T3, TSSK1 (Homo sapiens, UniProt Q9BXA7); conditions: TSSK1, 0.5µM
T3 sequence (Q9BXA7 1-367): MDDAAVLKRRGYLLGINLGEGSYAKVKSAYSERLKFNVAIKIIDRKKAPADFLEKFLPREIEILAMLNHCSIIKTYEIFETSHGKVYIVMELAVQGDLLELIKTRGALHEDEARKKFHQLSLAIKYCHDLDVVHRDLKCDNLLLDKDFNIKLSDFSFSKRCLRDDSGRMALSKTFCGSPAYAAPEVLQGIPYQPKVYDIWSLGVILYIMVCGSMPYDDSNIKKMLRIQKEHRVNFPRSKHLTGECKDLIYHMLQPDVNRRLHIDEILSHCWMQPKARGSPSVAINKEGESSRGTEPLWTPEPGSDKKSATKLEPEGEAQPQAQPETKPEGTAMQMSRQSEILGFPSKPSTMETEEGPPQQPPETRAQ
Procedure, shortened: as §1

[9] = 4hr RT preincubation, read-out: %Remaining activity at 0.5µM NU6300 - 4hr RT preincubation
[10] = usual format, read-out: %Remaining activity at 0.5µM NU6300 - Usual assay format

Chain of CLK2 (P49760 whole entry): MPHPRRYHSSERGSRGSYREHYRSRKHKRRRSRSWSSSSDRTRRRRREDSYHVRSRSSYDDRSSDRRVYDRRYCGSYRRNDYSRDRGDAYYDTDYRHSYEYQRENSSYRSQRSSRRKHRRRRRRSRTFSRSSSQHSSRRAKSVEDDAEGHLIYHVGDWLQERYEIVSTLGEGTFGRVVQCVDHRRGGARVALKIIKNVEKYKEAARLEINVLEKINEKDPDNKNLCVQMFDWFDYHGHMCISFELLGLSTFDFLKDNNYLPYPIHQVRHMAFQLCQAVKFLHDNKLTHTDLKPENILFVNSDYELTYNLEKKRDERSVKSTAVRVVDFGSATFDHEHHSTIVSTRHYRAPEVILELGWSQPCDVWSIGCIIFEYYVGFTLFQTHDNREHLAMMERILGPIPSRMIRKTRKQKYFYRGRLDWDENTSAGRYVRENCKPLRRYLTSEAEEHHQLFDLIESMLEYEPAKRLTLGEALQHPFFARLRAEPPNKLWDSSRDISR
Chain of JAK2 (O60674 whole entry): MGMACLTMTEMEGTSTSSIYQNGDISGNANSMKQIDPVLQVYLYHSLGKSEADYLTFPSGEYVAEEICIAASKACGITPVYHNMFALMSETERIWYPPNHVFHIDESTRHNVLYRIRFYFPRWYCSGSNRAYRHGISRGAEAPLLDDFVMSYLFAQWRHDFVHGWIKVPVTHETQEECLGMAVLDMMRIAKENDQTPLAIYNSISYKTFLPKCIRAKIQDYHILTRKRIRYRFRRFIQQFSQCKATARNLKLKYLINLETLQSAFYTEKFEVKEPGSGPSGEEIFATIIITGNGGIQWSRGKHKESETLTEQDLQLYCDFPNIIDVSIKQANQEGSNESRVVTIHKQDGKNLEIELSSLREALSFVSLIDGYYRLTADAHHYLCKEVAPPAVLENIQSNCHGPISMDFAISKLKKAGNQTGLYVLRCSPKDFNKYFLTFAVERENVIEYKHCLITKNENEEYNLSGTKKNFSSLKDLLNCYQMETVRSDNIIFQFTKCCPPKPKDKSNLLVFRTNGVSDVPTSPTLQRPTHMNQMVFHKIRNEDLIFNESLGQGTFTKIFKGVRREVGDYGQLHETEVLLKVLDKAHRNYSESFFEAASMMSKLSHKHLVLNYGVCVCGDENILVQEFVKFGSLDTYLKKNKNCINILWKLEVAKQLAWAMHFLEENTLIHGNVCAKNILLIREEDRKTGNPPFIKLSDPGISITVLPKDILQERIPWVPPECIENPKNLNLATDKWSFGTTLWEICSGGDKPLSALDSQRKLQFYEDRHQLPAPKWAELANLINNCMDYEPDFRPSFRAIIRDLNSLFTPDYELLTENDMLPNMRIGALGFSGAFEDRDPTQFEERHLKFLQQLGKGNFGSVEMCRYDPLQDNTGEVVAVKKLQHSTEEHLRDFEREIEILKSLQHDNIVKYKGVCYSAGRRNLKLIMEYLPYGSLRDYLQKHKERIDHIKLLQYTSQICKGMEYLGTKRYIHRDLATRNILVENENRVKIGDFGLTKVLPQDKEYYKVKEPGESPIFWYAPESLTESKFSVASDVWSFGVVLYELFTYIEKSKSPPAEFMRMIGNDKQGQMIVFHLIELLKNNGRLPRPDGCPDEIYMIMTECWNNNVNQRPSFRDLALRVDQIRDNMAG
Chain of IR (P06213 28-1382): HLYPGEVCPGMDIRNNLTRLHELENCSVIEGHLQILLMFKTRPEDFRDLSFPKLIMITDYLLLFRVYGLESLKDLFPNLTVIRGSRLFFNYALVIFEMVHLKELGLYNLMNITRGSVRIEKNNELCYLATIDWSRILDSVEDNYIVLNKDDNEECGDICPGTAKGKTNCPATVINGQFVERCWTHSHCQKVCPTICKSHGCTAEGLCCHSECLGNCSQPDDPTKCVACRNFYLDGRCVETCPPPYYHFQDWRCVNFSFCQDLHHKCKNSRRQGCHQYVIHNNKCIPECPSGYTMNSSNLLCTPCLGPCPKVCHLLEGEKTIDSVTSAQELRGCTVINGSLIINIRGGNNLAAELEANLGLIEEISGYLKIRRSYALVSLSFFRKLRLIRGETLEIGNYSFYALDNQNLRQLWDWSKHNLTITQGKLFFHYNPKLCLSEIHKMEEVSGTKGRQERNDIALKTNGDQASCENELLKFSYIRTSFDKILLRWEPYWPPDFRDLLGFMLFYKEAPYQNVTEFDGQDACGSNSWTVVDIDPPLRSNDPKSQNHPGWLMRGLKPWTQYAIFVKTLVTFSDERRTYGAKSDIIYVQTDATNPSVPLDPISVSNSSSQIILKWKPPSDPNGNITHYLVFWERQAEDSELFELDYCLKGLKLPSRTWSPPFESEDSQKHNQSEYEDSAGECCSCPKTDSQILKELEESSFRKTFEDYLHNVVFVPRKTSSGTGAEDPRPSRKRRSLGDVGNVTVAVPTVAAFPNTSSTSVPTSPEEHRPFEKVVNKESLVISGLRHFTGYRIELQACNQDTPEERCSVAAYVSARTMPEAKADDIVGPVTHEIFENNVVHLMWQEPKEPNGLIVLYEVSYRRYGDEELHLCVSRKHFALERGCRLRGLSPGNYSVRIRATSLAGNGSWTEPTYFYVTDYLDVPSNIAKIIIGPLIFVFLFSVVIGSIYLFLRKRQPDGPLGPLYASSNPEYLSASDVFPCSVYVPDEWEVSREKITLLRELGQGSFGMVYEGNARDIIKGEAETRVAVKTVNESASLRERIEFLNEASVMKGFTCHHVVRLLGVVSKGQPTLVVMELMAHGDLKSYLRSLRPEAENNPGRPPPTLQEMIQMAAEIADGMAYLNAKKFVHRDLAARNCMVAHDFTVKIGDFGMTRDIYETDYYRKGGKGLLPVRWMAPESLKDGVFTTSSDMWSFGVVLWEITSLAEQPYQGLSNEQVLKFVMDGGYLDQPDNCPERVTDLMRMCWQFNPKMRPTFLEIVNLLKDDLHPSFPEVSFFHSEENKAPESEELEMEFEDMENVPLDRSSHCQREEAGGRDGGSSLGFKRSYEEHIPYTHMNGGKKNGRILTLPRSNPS
Chain of CDK9-Cyclin T1 (P50750 whole entry): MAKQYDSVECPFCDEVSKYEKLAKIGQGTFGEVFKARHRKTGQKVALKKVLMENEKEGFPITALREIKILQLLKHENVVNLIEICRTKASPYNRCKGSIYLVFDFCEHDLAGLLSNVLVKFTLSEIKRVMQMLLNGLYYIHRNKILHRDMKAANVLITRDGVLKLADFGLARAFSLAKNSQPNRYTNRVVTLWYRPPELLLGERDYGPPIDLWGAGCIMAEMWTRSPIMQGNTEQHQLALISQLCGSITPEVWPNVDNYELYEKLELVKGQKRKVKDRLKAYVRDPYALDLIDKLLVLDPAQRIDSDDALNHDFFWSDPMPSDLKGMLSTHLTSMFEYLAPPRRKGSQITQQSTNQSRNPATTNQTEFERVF
Chain of CDK9-Cyclin T1 (O60563 whole entry partner): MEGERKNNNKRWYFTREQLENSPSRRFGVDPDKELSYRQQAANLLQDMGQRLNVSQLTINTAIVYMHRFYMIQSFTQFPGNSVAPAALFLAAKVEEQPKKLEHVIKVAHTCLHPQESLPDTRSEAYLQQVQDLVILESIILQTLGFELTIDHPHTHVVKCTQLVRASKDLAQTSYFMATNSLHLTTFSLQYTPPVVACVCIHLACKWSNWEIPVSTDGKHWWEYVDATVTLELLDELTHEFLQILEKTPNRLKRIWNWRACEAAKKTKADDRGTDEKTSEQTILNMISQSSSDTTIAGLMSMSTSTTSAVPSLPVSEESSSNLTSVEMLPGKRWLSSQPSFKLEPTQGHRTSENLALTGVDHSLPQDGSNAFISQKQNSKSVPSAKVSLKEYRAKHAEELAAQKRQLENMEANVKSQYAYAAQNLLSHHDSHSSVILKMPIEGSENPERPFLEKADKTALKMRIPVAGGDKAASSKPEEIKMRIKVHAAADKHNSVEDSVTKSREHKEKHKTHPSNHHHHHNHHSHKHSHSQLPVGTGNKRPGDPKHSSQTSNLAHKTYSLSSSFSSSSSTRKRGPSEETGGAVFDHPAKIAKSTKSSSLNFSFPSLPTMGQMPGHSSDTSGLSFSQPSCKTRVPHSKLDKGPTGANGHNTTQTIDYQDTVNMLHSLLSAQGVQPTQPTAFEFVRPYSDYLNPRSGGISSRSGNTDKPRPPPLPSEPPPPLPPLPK
Chain of GSK3b (P49841 whole entry): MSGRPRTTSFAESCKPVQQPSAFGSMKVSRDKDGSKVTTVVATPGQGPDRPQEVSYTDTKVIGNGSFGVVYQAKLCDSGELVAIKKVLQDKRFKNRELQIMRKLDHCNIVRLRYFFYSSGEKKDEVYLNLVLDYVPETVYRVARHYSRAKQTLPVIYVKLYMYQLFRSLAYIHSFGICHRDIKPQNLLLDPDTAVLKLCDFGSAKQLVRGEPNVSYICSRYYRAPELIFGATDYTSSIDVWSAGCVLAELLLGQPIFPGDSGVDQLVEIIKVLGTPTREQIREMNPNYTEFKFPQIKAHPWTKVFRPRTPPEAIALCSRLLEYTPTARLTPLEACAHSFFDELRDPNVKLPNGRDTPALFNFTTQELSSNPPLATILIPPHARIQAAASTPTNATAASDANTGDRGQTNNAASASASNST

## C=CS(=O)(=O)c1ccc(Nc2nc(OCC3CCCCC3)c3nc[nH]c3n2)cc1 [NU6300, 6-(cyclohexylmethoxy)-N-(4-(vinylsulfonyl)phenyl)-9H-purin-2-amine]
[1]; [9]
  remaining activity at 0.5 µM: 127%
[1]; [10]
  remaining activity at 0.5 µM: 89%
[2]; [9]
  remaining activity at 0.5 µM: 42%
[2]; [10]
  remaining activity at 0.5 µM: 72%
[3]; [9]
  remaining activity at 0.5 µM: 104%
[3]; [10]
  remaining activity at 0.5 µM: 35%
[4]; [9]
  remaining activity at 0.5 µM: 81%
[4]; [10]
  remaining activity at 0.5 µM: 80%
[5]; [9]
  remaining activity at 0.5 µM: 58%
[5]; [10]
  remaining activity at 0.5 µM: 48%
[6]; [9]
  remaining activity at 0.5 µM: 7%
[6]; [10]
  remaining activity at 0.5 µM: 9%
[7]; [9]
  remaining activity at 0.5 µM: 52%
[7]; [10]
  remaining activity at 0.5 µM: 47%
[8]; [9]
  remaining activity at 0.5 µM: 67%
[8]; [10]
  remaining activity at 0.5 µM: 53%
